# pEC50: −log10 of the molar value.
# Experiments:
# Assay type in all cases: cell-based
# H723R-pendrin [1] = target: T1, H723R-pendrin (Homo sapiens, UniProt O43511, H723R); experiment: YFP fluorescence quenching assay (Cl−/I− exchange activity of pendrin); settings: PANC-1 cells stably expressing human H723R-pendrin and YFP-F46L/H148Q/I152L; compound incubation 20-24 hours; iodide influx
# T1 construct: expressed in transfected cells; host or cells: PANC-1
# T1 sequence (O43511 1-780 H723R): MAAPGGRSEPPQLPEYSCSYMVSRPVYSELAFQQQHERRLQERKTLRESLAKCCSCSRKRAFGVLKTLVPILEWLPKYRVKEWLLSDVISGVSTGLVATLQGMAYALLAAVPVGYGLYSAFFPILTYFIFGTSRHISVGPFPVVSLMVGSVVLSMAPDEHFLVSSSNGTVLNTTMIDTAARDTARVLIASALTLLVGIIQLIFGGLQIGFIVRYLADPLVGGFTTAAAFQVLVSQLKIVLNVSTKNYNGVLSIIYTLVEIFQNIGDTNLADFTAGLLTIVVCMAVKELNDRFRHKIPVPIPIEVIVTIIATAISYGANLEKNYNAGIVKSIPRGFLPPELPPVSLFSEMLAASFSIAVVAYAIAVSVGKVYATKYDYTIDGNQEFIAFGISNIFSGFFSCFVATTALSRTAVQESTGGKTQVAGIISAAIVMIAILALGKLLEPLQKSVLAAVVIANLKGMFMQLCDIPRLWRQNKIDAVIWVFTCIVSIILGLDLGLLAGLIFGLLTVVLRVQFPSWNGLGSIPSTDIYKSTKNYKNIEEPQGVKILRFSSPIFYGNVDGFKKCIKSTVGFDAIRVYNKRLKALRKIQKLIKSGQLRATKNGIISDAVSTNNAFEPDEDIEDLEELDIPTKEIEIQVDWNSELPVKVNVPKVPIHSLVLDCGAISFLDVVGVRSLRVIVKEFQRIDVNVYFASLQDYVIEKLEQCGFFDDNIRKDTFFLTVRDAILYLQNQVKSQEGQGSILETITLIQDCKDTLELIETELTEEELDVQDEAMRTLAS
# Description: Halide sensor YFP F46L/H148Q/I152L is quenched by halide ion like Iodide. When such YFP is expressed in a cell, it expresses in the cytoplasm.
# To measure H723R-PDS activity, PANC-1 cells were stably transfected with halide sensors YFP-F46L/H148Q/I152L and H723R-PDS which has problems with membrane trafficking due to misfolding.
# If the cell-treated drug is a corrector for H723R-PDS, H723R-PDS will translocate normally to the plasma membrane.
# At this time, when treated with a high-concentration iodide solution outside the cell, iodide enters the cell due to the Cl−/I− exchange activity of pendrin, and the fluorescence of the halide sensor YFP decreases.
# PANC-1 cells were cultured in Dulbecco's Modified Eagle's Medium with 10% fetal bovine serum, 2 mM glutamine, 100 units/ml penicillin and 100 µg/ml streptomycin. For high-throughput screening, PANC-1 cells were stably transfected with human H723R-pendrin and halide sensor YFP-F46L/H148Q/I152L.
# PANC-1 cells expressing human H723R-pendrin and YFP-F46L/H148Q/I152L were plated in 96-well microplates at a density of 2×10^4 cells per well and grown for 20-24 hours at 37° C. (90% humidity 5% CO2). Then these cells were treated with 50 μl growth medium containing test compounds and incubated for 20-24 hours. For YFP quenching assay, each well of the 96-well plate was washed 2 times with 200 μl of PBS, and it was filled with 50 μl of HEPES-buffered solution (140 mM NaCl, 5 mM KCl, 1 mM MgCl2, 1 mM CaCl2, 10 mM D-glucose, 10 mM HEPES; pH 7.4 with NaOH). After 10 minutes of incubation at 37° C., the 96-well plate was moved on the FLUOstar Omega Microplate Reader (BMG Labtech, Ortenberg, Germany) for a fluorescence assay. Each well was assayed individually for H723R-pendrin mediated I^− influx by recording fluorescence (495±15 nm excitation, 520±20 nm emission) every 400 ms for 1 second (baseline). Then, 50 μL of NaI-substituted HEPES-buffered solution (NaI replacing NaCl) was added using a liquid injector at 1 second and YFP fluorescence was recorded every 400 ms for 10 seconds. The initial iodide influx rate was determined from the initial slope of fluorescence by nonlinear regression, after the infusion of iodide.
# It is indicated as EC50 with the following key: A=EC50 less than 5 uM; B=EC50 greater than 5 uM, but less than 10 uM; C=EC50 greater than 10 uM.
# H723R-hPDS = target: T2, H723R-hPDS (Homo sapiens, UniProt O43511, H723R); experiment: Surface biotinylation assay; settings: Panc1 hPDS-H723R cells, 24 h treatment
# T2 construct: expressed in transfected cells; host or cells: Panc1 (Panc1^hPDS-H723R)
# T2 sequence (O43511 1-780 H723R): T1 sequence (O43511 1-780 H723R)
# Description: Surface biotinylation is a commonly used technique to specifically isolate plasma membrane proteins using a modified biotin in a form that is easy to bind with proteins. Sulfo-NHS-SS-biotin is a generally used reagent in surface biotinylation due to its impermeability and water solubility. In cool conditions, the extracellular domain of membrane proteins is covalently binding with the reactive biotin ester. These proteins are separated from the whole lysate via a biotin-streptavidin response. In this process, we can validate the increasing rate of the expression level of mutant pendrin in the plasma membrane.
# Panc1^parental, Panc1^hPDS-WT and Panc1^hPDS-H723R cells were cultured in high glucose DMEM medium supplemented with 10% fetal bovine serum and 1% antibiotics. 24 hours after seeding in 6-well plates, cells were treated as indicated for 24 h. Cells were washed in PBS and incubated on ice with 0.3 mg/ml biotin in PBS. After 35 min, 1% BSA in PBS, D.W mixture (1:1) was added to cells, and cells were incubated for 10 min. Cells were washed and lysed in lysis buffer. The lysates were sonicated for 20 seconds, and not boiled. After centrifugated, the supernatants were collected and quantified via BCA analysis. The quantified supernatants were added to 10% avidin beads in PBS and incubated overnight at 4° C. After incubation, the below steps were repeated 4 times: i) centrifugation, ii) removing the supernatant, iii) washing with lysis buffer. After the last centrifugation and removing the supernatant, the sample buffer mixed with reducing buffer was added to biotin-avidin mixtures. The elution was accomplished in the 38° C. bioshaker for 40 min and the supernatant was collected. The supernatant was separated by SDS-PAGE and transferred to an Immobilon membrane. After incubation in 5% BSA solution to prevent nonspecific binding, the membrane was incubated with specific antibodies overnight. Then, the membrane was washed with TBST buffer and incubated with HRP-conjugated anti-rabbit or -mouse antibody for 1 hour. The ECL buffer and iBright were used for the visualization of protein bands. The respective protein band intensity was quantified by densitometric analysis using the NIH ImageJ program.
# It is indicated as expression % with the following key: A=Expression % greater than 100%; B=Expression % greater than 50%, but less than 100%; C=Expression % less than 50%.
# H723R-pendrin [2] = target: T1, H723R-pendrin; experiment: PTI assay (Cl−/HCO3− exchange activity); settings: PANC-1 cells, BCECF pHi
# Procedure: Measurements of intracellular pH (pHi) in PANC-1 cells were performed with the pH-sensitive fluorescent probe 2′,7′-bis-(2-carboxyethyl)-5-(and-6)-carboxyfluorescein (BCECF) according to previously reported protocols. Briefly, cells were incubated with 2 μM BCECF acetoxy-methylester for 5 min and then perfused with a HCO3^−-buffered solution [containing 120 mM NaCl, 5 mM KCl, 1 mM MgCl2, 1 mM CaCl2, 10 mM d-glucose, 5 mM Hepes, and 25 mM NaHCO3 (pH 7.4)].
# BCECF fluorescence was recorded at excitation wavelengths of 490 and 440 nm at a resolution of 2/s on a recording setup. The Cl^−/HCO3^− exchange activities were estimated from the initial rate of pHi increase as a result of Cl^− removal from the HCO3^−-containing buffer (25 mM HCO3^− with 5% CO2).
# The pHi calibration was performed with standard pH solutions containing 150 mM KCl and 5 μM nigericin. The intrinsic buffer capacity (βi) was calculated by measuring ΔpHi in response to 5 to 40 mM NH4Cl pulses in Na^+-free solutions. Because the βi values were not substantially affected by transfection with the plasmids encoding for WT-pendrin or H723R-pendrin, the Cl^−/HCO3^− exchange activities were expressed as ΔpH unit/min without compensating for the buffer capacity.
# It is indicated as exchange % with the following key: A=Exchange % greater than 50%; B=Exchange % less than 50%.
SMILES,pEC50 (H723R-pendrin [1]),Surface expression % of H723R-hPDS relative to WT-hPDS (Glycosylated form pendrin) (H723R-hPDS; 3 uM),Surface expression % of H723R-hPDS relative to WT-hPDS (Glycosylated form pendrin) (H723R-hPDS; 10 uM),"Cl−/HCO3− exchange, % of WT-hPDS (H723R-pendrin [2]; 3 uM)","Cl−/HCO3− exchange, % of WT-hPDS (H723R-pendrin [2]; 10 uM)"
NC1=C(c2cncc(-c3ccc(O)c(O)c3)n2)C(=O)CN1C1CCCC1 [Compound 33],> 5.30,A (A=Expression % greater than 100%),A (A=Expression % greater than 100%),,
COc1cc(-c2cncc(C3=C(N)N(CC4CCCC4)CC3=O)n2)ccc1O [Compound 73],> 5.30,,,A (A=Exchange % greater than 50%),A (A=Exchange % greater than 50%)
NC1=C(c2cncc(-c3ccc(O)c(O)c3)n2)C(=O)CN1CC1CCCCC1 [Compound 49],> 5.30,A (A=Expression % greater than 100%),A (A=Expression % greater than 100%),A (A=Exchange % greater than 50%),A (A=Exchange % greater than 50%)
COc1cc(-c2cncc(C3=C(N)N(c4ccccc4Cl)CC3=O)n2)ccc1O [Compound 28],> 5.30,A (A=Expression % greater than 100%),A (A=Expression % greater than 100%),B (B=Exchange % less than 50%),A (A=Exchange % greater than 50%)
NC1=C(c2cncc(-c3ccc(O)c(O)c3)n2)C(=O)CN1C1CCC(F)(F)C1 (stereo not shown) [Compound 62],> 5.30,"B (B=Expression % greater than 50%, but less than 100%)",A (A=Expression % greater than 100%),,
NC1=C(c2cncc(-c3ccc(O)c(O)c3)n2)C(=O)CN1CCC1CCCC1 [Compound 46],> 5.30,"B (B=Expression % greater than 50%, but less than 100%)",A (A=Expression % greater than 100%),,
CC(C)CN1CC(=O)C(c2cncc(-c3ccc(O)c(O)c3)n2)=C1N [Compound 13],> 5.30,A (A=Expression % greater than 100%),A (A=Expression % greater than 100%),,
COc1ccc(-c2cncc(C3=C(N)N(CC(C)C)CC3=O)n2)cc1OC [Compound 8],> 5.30,"B (B=Expression % greater than 50%, but less than 100%)",A (A=Expression % greater than 100%),,
NC1=C(c2cncc(-c3ccc(O)c(O)c3)n2)C(=O)CN1CC1CCC1 [Compound 69],> 5.30,,,B (B=Exchange % less than 50%),A (A=Exchange % greater than 50%)
